Source: the supplement of paper PMC11451515

How the values were obtained:
P12-Ichikawa [1] = assay: AUC of viability dose-response curve (% viability x log10 dose units); higher = less sensitive; conditions: 48 h
In short: (§1)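 Library compounds in DMSO were applied for 48 h at 37°C at 11 threefold doses (47 μM to 0.79 nM) to medium-adapted leukemia cells in 1536-well plates holding 500 or 1000 cells/well. Luminescence from CellTiter-Glo One was normalised plate by plate against DMSO and cell-free wells. Area under the curve came from trapezoidal integration of a log-logistic fit, after scaling curves that rose above full viability and discarding those that failed quality control. The fit had four parameters and used log10 doses.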

NOMO1 [2] = assay: as above; conditions: 48 h
In short: as §1

SEM cells [3] = assay: as above; conditions: 48 h
In short: as §1

P12-Ichikawa [4] = assay: cell viability relative to DMSO control; higher = less cytotoxic; conditions: 48 h
In short: (§2)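 Leukemia cells (NOMO1 or SEM, 500 cells/well; P12-Ichikawa, 1000 cells/well) were seeded in 5 μl in 1536-well plates after at least four passages of adaptation to each medium. They received library compounds in DMSO by pin dosing, 11 threefold points from 47 μM to 0.79 nM. Luminescence with CellTiter-Glo One was read after 48 h at 37°C. Viability is stated per plate relative to DMSO wells, with cell-free wells as background.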

NOMO1 [5] = assay: as above; conditions: HPLM + 10% dialyzed FBS, 48 h
In short: as §2

SEM cells [6] = assay: as above; conditions: 48 h
In short: as §2

C[S+](=O)([O-])CCNCc1ccc(-c2ccc3ncnc(Nc4ccc(OCc5cccc(F)c5)c(Cl)c4)c3c2)o1
AUC of viability dose-response curve
Conditions | NOMO1 [2] | P12-Ichikawa [1] | SEM cells [3]
HPLM + 10% dialyzed FBS | 456 | 448 | 442
RPMI 5 mM glucose + 10% FBS | 451 | 453 | 418
RPMI 5 mM glucose + 10% dialyzed FBS | 444 | 429 | 440

COc1cc2c(Oc3ccc4[nH]c(C)cc4c3F)ncnc2cc1OCCCN1CCCC1
AUC of viability dose-response curve
Conditions | NOMO1 [2] | P12-Ichikawa [1] | SEM cells [3]
HPLM + 10% dialyzed FBS | 453 | 448 | 382
RPMI 5 mM glucose + 10% FBS | 452 | 449 | 380
RPMI 5 mM glucose + 10% dialyzed FBS | 463 | 448 | 356

CCOc1cc(CC(=O)N[C@@H](CC(C)C)c2ccccc2N2CCCCC2)ccc1C(=O)O
cell viability [%]
Conditions | HPLM + 10% dialyzed FBS | RPMI 5 mM glucose + 10% FBS | RPMI 5 mM glucose + 10% dialyzed FBS
P12-Ichikawa [4], 0.000781 µM | 113 | 110 | –
P12-Ichikawa [4], 0.00234 µM | 124 | 130 | –
P12-Ichikawa [4], 0.00702 µM | 116 | 119 | –
P12-Ichikawa [4], 0.0211 µM | 129 | 137 | –
P12-Ichikawa [4], 0.0632 µM | 130 | 124 | –
P12-Ichikawa [4], 0.19 µM | 125 | 127 | –
P12-Ichikawa [4], 0.569 µM | 129 | 135 | –
P12-Ichikawa [4], 1.71 µM | 111 | 120 | –
P12-Ichikawa [4], 5.12 µM | 12.2 | 16.4 | –
P12-Ichikawa [4], 15.4 µM | 13.3 | 17.6 | –
P12-Ichikawa [4], 46.1 µM | 13.4 | 19.6 | –
SEM cells [6], 0.000781 µM | 83.9 | 103 | 105
SEM cells [6], 0.00234 µM | 104 | 110 | 113
SEM cells [6], 0.00702 µM | 121 | 109 | 123
SEM cells [6], 0.0211 µM | 106 | 109 | 127
SEM cells [6], 0.0632 µM | 116 | 106 | 109
SEM cells [6], 0.19 µM | 109 | 108 | 114
SEM cells [6], 0.569 µM | 122 | 118 | 119
SEM cells [6], 1.71 µM | 117 | 134 | 137
SEM cells [6], 5.12 µM | 132 | 127 | 130
SEM cells [6], 15.4 µM | 125 | 129 | 128
SEM cells [6], 46.1 µM | 119 | 123 | 134

Conditions | AUC of viability dose-response curve | cell viability [%]
NOMO1 [2], HPLM + 10% dialyzed FBS | 327 | –
NOMO1 [2], RPMI 5 mM glucose + 10% FBS | 310 | –
NOMO1 [2], RPMI 5 mM glucose + 10% dialyzed FBS | 337 | –
NOMO1 [5], 0.000781 µM | – | 117
NOMO1 [5], 0.00234 µM | – | 120
NOMO1 [5], 0.00702 µM | – | 139
NOMO1 [5], 0.0211 µM | – | 138
NOMO1 [5], 0.0632 µM | – | 141
NOMO1 [5], 0.19 µM | – | 126
NOMO1 [5], 0.569 µM | – | 46.7
NOMO1 [5], 1.71 µM | – | 43.4
NOMO1 [5], 5.12 µM | – | 37
NOMO1 [5], 15.4 µM | – | 41.1
NOMO1 [5], 46.1 µM | – | 34.7
P12-Ichikawa [1], HPLM + 10% dialyzed FBS | 365 | –
P12-Ichikawa [1], RPMI 5 mM glucose + 10% FBS | 373 | –
P12-Ichikawa [1], RPMI 5 mM glucose + 10% dialyzed FBS | 387 | –
SEM cells [3], HPLM + 10% dialyzed FBS | 459 | –
SEM cells [3], RPMI 5 mM glucose + 10% FBS | 432 | –
SEM cells [3], RPMI 5 mM glucose + 10% dialyzed FBS | 436 | –

Clc1ccc(COC(Cn2ccnc2)c2ccc(Cl)cc2Cl)c(Cl)c1 (stereo not drawn)
SEM cells [6], HPLM + 10% dialyzed FBS
Conditions | cell viability [%]
0.000781 µM | 121
0.00234 µM | 120
0.00702 µM | 112
0.0211 µM | 123
0.0632 µM | 104
0.19 µM | 115
0.569 µM | 114
1.71 µM | 124
5.12 µM | 99.3
15.4 µM | 109
46.1 µM | 70

AUC of viability dose-response curve
Conditions | NOMO1 [2] | P12-Ichikawa [1] | SEM cells [3]
HPLM + 10% dialyzed FBS | 425 | 452 | 462
RPMI 5 mM glucose + 10% FBS | 468 | 467 | 460
RPMI 5 mM glucose + 10% dialyzed FBS | 452 | 419 | 449
